Measurements reported in patent EP4635500A1, “THERAPEUTIC AGENT FOR BACTERIAL INFECTION” (Sumitomo Pharma Co., Ltd., priority 2022, dated 2024).
≈ marks a conversion by molar mass, not a printed value. Like-named read-outs stand apart in the source and are kept apart here.

System: P. aeruginosa
Assay: MIC, broth microdilution, CDC/FDA Antibiotic Resistance Isolate Bank (Example 7, Tables 10, 15)
Type: cell-based
Settings: for MIC: Pseudomonas aeruginosa, read-out: MIC

C[C@@H](O)[C@H]1C(=O)N2C(C(=O)O)=C(S[C@@H]3CN[C@H](C(=O)N(C)C)C3)[C@H](C)[C@H]12 [MEPM, meropenem]
MIC against 96 strains of P. aeruginosa MIC50 (96 strains of P. aeruginosa, β-lactamase inhibitor µg/mL in parentheses): 16 µg(mL)
MIC (KUB No. 57 (continued 90 in the 40th table r2), AR Bank #44 (continued 5), no carbapenemase gene): 64 µg/mL (≈ 167 µM)
MIC (KUB No. 5587, AR Bank #90, KPC-5): 32 µg/mL (≈ 83.4 µM)
MIC (KUB No. 5591, AR Bank #94, no carbapenemase gene): 16 µg/mL (≈ 41.7 µM)
MIC (KUB No. 5592, AR Bank #95, no carbapenemase gene): 8 µg/mL (≈ 20.9 µM)
MIC (KUB No. 5607, AR Bank #110, VIM-2): 64 µg/mL (≈ 167 µM)
MIC (KUB No. 5608, AR Bank #111, VIM-2): 32 µg/mL (≈ 83.4 µM)
MIC (KUB No. 5662, AR Bank #229, no carbapenemase gene): 32 µg/mL (≈ 83.4 µM)
MIC (KUB No. 5663, AR Bank #230, VIM-2): 64 µg/mL (≈ 167 µM)
MIC (KUB No. 5666, AR Bank #233, no carbapenemase gene): 16 µg/mL (≈ 41.7 µM)
MIC (KUB No. 5667, AR Bank #234, no carbapenemase gene): 2 µg/mL (≈ 5.22 µM)
MIC (KUB No. 5668, AR Bank #235, no carbapenemase gene): 16 µg/mL (≈ 41.7 µM)
MIC (KUB No. 5669, AR Bank #236, no carbapenemase gene): 2 µg/mL (≈ 5.22 µM)
MIC (KUB No. 5670, AR Bank #237, no carbapenemase gene): 2 µg/mL (≈ 5.22 µM)
MIC (KUB No. 5671, AR Bank #238, no carbapenemase gene): ≤ 0.25 µg/mL
MIC (KUB No. 5672, AR Bank #239, GES-1, VIM-11): 64 µg/mL (≈ 167 µM)
MIC (KUB No. 5676, AR Bank #243, VIM-2): 8 µg/mL (≈ 20.9 µM)
MIC (KUB No. 5677, AR Bank #244, no carbapenemase gene): 16 µg/mL (≈ 41.7 µM)
MIC (KUB No. 5678, AR Bank #245, VIM-2): 8 µg/mL (≈ 20.9 µM)
MIC (KUB No. 5684, AR Bank #251, no carbapenemase gene): 1 µg/mL (≈ 2.61 µM)
MIC (KUB No. 5685, AR Bank #252, no carbapenemase gene): 2 µg/mL (≈ 5.22 µM)
MIC (KUB No. 5686, AR Bank #253, no carbapenemase gene): 0.5 µg/mL (≈ 1.3 µM)
MIC (KUB No. 5687, AR Bank #254, VIM-2): 64 µg/mL (≈ 167 µM)
MIC (KUB No. 5689, AR Bank #256, no carbapenemase gene): 2 µg/mL (≈ 5.22 µM)
MIC (KUB No. 5691, AR Bank #258, no carbapenemase gene): 2 µg/mL (≈ 5.22 µM)
MIC (KUB No. 5692, AR Bank #259, no carbapenemase gene): 0.5 µg/mL (≈ 1.3 µM)
MIC (KUB No. 5694, AR Bank #261, no carbapenemase gene): 0.5 µg/mL (≈ 1.3 µM)
MIC (KUB No. 5695, AR Bank #262, no carbapenemase gene): 0.5 µg/mL (≈ 1.3 µM)
MIC (KUB No. 5696, AR Bank #263, no carbapenemase gene): ≤ 0.25 µg/mL
MIC (KUB No. 5697, AR Bank #264, no carbapenemase gene): 2 µg/mL (≈ 5.22 µM)
MIC (KUB No. 5698, AR Bank #265, no carbapenemase gene): 8 µg/mL (≈ 20.9 µM)
MIC (KUB No. 5699, AR Bank #266, no carbapenemase gene): 8 µg/mL (≈ 20.9 µM)
MIC (KUB No. 5700, AR Bank #267, no carbapenemase gene): 2 µg/mL (≈ 5.22 µM)
MIC (KUB No. 5701, AR Bank #268, no carbapenemase gene): 16 µg/mL (≈ 41.7 µM)
MIC (KUB No. 5702, AR Bank #269, no carbapenemase gene): 8 µg/mL (≈ 20.9 µM)
MIC (KUB No. 5703, AR Bank #270, no carbapenemase gene): 2 µg/mL (≈ 5.22 µM)
MIC (KUB No. 5704, AR Bank #271, no carbapenemase gene): 8 µg/mL (≈ 20.9 µM)
MIC (KUB No. 5705, AR Bank #272, no carbapenemase gene): 2 µg/mL (≈ 5.22 µM)
MIC (KUB No. 5747, AR Bank #351, no carbapenemase gene): 16 µg/mL (≈ 41.7 µM)
MIC (KUB No. 5749, AR Bank #353, GES-1): 16 µg/mL (≈ 41.7 µM)
MIC (KUB No. 5751, AR Bank #355, no carbapenemase gene): 8 µg/mL (≈ 20.9 µM)
MIC (KUB No. 5752, AR Bank #356, KPC-2): 32 µg/mL (≈ 83.4 µM)
MIC (KUB No. 5754, AR Bank #358, no carbapenemase gene): 8 µg/mL (≈ 20.9 µM)
MIC (KUB No. 5755, AR Bank #359, no carbapenemase gene): 8 µg/mL (≈ 20.9 µM)
MIC (KUB No. 5756, AR Bank #360, no carbapenemase gene): 16 µg/mL (≈ 41.7 µM)
MIC (KUB No. 5785, AR Bank #439, IMP-18): 64 µg/mL (≈ 167 µM)
MIC (KUB No. 5786, AR Bank #440, no carbapenemase gene): 8 µg/mL (≈ 20.9 µM)
MIC (KUB No. 5787, AR Bank #441, KPC-2): 32 µg/mL (≈ 83.4 µM)
MIC (KUB No. 5788, AR Bank #443, no carbapenemase gene): 16 µg/mL (≈ 41.7 µM)
MIC (KUB No. 5791, AR Bank #447, no carbapenemase gene): 2 µg/mL (≈ 5.22 µM)
